Test results published in patent publication US20150306167A1, “ALPINIA SPP. EXTRACTS FOR TREATING IRRITABLE BOWEL SYNDROME” (MEDICAL AND PHARMACEUTICAL INDUSTRY TECHNOLOGY AND …, priority 2012, published 2015).

Assays:
[1] = test system: 5-HTP induced visceral hypersensitivity (AWR); assay: Visceral hypersensitivity by behavioral response, AWR score after 5-HTP; assay type: in vivo, Male Sprague-Dawley rats; settings: for AWR score: body arching and lifting of pelvic structures / AWR score: lifting abdomen / AWR scores compared with control rats: 5-HTP rats; for anti-abdominal pain activity (or anti-visceral hypersensitivity): purified compounds from Alpinia oxyphylla
Description: Animal Model for Evaluating Chronic Visceral Hypersensitivity by Measuring […] Withdrawal Reflex (AWR)
In this model, behavioral response was studied by measuring the AWR, which is an involuntary motor reflex similar to visceromotor reflex. The AWR was graded with the intensity of stimulus.
Male Sprague-Dawley rats (BioLASCO Taiwan Co., Ltd., Taiwan) were kept in an air-conditioned animal shelter at room temperature of 22° C. to 24° C. with controlled level of humidity (40% to 50%) in a 12-hour light-dark cycle. Each rat weighed between 200 to 350 g in the beginning of the test. Tap water and standard laboratory rodent chow were provided ad libitum. Unless specifically indicated, each group included 6 rats, and experiments were conducted without fasting the animals. The plant extracts and positive control drugs were given to the animals either orally or intraperitoneally.
Behavioral studies were assessed in according to previously described procedures (AL-CHAER et al., Gastroenterology 2000, 119:1276-1285). Briefly, the rats were then housed in small Lucite cubicles (20×8×8 cm) on an elevated Plexiglas platform and allowed to wake up and adapt (1 hr). Animal was injected subcutaneously with a dose of 5-HTP (10 mg/kg) to induce visceral hypersensitivity, and behavioral response was studied by measuring the AWR. Measurement of the AWR consisted of visual observation of the animal response by blinded observers and assignments of an AWR score: 0, no behavioral response; 1, brief head movement followed by immobility; 2, mild contraction of abdominal muscles without lifting the abdomen off the platform; 3, strong contraction of the abdominal muscles and lifting abdomen off the platform; 4, severe contraction of the abdominal muscle manifested by body arching and lifting of pelvic structures. Behavioral measurements were repeated by two different blinded observers.
(§1) All results are expressed as means±STD; n refers to animals in each group. Differences between animals of each group were compared by one-way
(§2) ANOVA followed by Dunnett's t test. A p value less than or equal to 0.05 was considered to be statistically significant.

[2] = test system: 5-HTP induced diarrhea and/or abnormal defecation; assay: 5-HTP induced diarrhea and/or abnormal defecation animal model; assay type: in vivo, Male ICR mice; settings: for 5-HTP induced diarrhea (diarrhea score): FIG. 12A; for 5-HTP induced diarrhea (diarrhea score) / number of stools excreted: N=5 mice/group; for number of stools excreted: FIG. 12B, in 30 min; for anti-abnormal defecation effect / activity: purified compounds from Alpinia oxyphylla
Description: Animal Model for Evaluating 5-HTP Induced Diarrhea and/or Abnormal Defecation
Male ICR mice (BioLASCO Taiwan Co., Ltd., Taiwan) were kept in an air-conditioned animal shelter at room temperature of 22° C. to 24° C. with controlled level of humidity (40% to 50%) in a 12-hour light-dark cycle. Each mouse weighed between 30 to 34 g in the beginning of the test. Tap water and standard laboratory rodent chow were provided ad libitum.
[…], and each mice in the test group was given two doses of the Alpinia spp. extract of this invention (i.e., 500 mg/kg, 1,000 mg/kg, or 2,000 mg/kg) orally on day 1, and a third dose on day 2; and one dose of 5-HTP (i.p., 10 mg/kg) just 60 minutes after the administration of the third dose of the Alpinia spp. extract. In some occasions, the Alpinia spp. extracts of this invention were given intraperitoneally instead of orally. For comparison purpose, loperamide hydrochloride (oral; 2 mg/kg), ondansteron hydrochloride (oral; 2 mg/kg) or graniserton hydrochloride (oral; 2 mg/kg) were given once respectively to the control animals just 30 minutes prior to the administration of 5-HTP. Thirty minutes after 5-HTP injection, defecation of each animal was observed, with number of stools excreted for 30 min and diarrhea score respectively recorded accordingly. The diarrhea score was designed to describe consistency of stool using an arbitrary score scale from 0 to 3, with 0 representing solid form of stool, 1 representing loose form of stool, 2 representing partially liquid-like form of stool, and 3 representing watery form of stool.
as §1, §2

IBS patients = settings: reported, cited from earlier work

## CN1C2CCCC1CC(NC(=O)c1nn(C)c3ccccc13)C2 (stereo not shown) [Granisetron, granisetron, reference compound]
[1]; 100 μg/kg i.p., n = 1, Table 1
  AWR score: body arching and lifting of pelvic structures: 1.90
  AWR score: lifting abdomen: 2.80

## C=C(C)[C@]1(O)CC[C@]2(C)CC(=O)C=C(C)[C@H]2C1 [PDC-2453, 7-epi-teucrenone]
[2]
  5-HTP induced diarrhea (diarrhea score): capable of suppressing 5-HTP induced diarrhea
  number of stools excreted: reducing the number of stools excreted
  anti-abnormal defecation effect / activity: possess anti-abnormal defecation activity

## CC(C)[C@@H]1CCC(=O)C2=C1[C@H](O)[C@](C)(O)CC2 [PDC-2454, Oxyphellenodiol A]
[2]
  5-HTP induced diarrhea (diarrhea score): capable of suppressing 5-HTP induced diarrhea
  number of stools excreted: reducing the number of stools excreted
  anti-abnormal defecation effect / activity: possess anti-abnormal defecation activity

## C=C(C)[C@@H]1CC[C@]2(C)CCC(=O)C(C)=C2[C@H]1O [PDC-2460, 6-α-hydroxy-7-epi-α-cyperone]
[2]
  5-HTP induced diarrhea (diarrhea score): capable of suppressing 5-HTP induced diarrhea
  number of stools excreted: reducing the number of stools excreted
  anti-abnormal defecation effect / activity: possess anti-abnormal defecation activity

## C=C(C)[C@@]1(O)CC[C@]2(C)CC(=O)C=C(C)[C@H]2C1 [PDC-2464, Teucrenone]
[2]
  5-HTP induced diarrhea (diarrhea score): capable of suppressing 5-HTP induced diarrhea
  number of stools excreted: reducing the number of stools excreted
  anti-abnormal defecation effect / activity: possess anti-abnormal defecation activity
[1]; 5 mg/kg i.p., Table 3
  AWR score: body arching and lifting of pelvic structures: 1.75 ± 0.16
  AWR score: lifting abdomen: 1.60 ± 0.11
[1]
  AWR scores compared with control rats: significantly lower
  anti-abdominal pain activity (or anti-visceral hypersensitivity): proved to possess anti-abdominal pain activity

## COc1cc(O)c2c(=O)cc(-c3ccccc3)oc2c1 [PDC-2521, Tectochrysin]
[2]
  anti-abnormal defecation effect / activity: possess anti-abnormal defecation activity

## COc1cc(O)c2c(=O)c(O)c(-c3ccccc3)oc2c1 [PDC-2524, Isalpinin]
[1]; 2.5 mg/kg i.p., Table 3
  AWR score: body arching and lifting of pelvic structures: 2.40 ± 0
  AWR score: lifting abdomen: 2.27 ± 0.06
[1]; 5 mg/kg i.p., Table 3
  AWR score: body arching and lifting of pelvic structures: 2.10 ± 0
  AWR score: lifting abdomen: 1.87 ± 0.06
[1]; 10 mg/kg i.p., n = 1, Table 3
  AWR score: body arching and lifting of pelvic structures: 1.60
  AWR score: lifting abdomen: 1.20
[1]
  AWR scores compared with control rats: significantly lower
  anti-abdominal pain activity (or anti-visceral hypersensitivity): proved to possess anti-abdominal pain activity

## Cc1[nH]cnc1CN1CCc2c(c3ccccc3n2C)C1=O [alosetron]
IBS patients
  IBS patients with improved clinical symptoms: about 50%
  IBS patients with side effects such as constipation and ischemia colitis: 30-35%

## [H]/N=C(/NCCCCC)N/N=C/c1c[nH]c2ccc(OC)cc12 [tegaserod]
IBS patients
  therapeutic effects on IBS: limited therapeutic effects on IBS
IBS patients; retracted from the market in 2007
  risk of IBS patients in developing cardiovascular diseases: increases significantly
